Laboratory results taken from patent US20060264497A1, “Diindolylmethane-based compositions and methods of use thereof for promoting oral mucosal and bone health” (priority 2005, published 2006).
Marks after values point to notes of the source that are not given here.

What was measured:
[1] = cited from earlier work
[2] = Dissolution of DIM containing particles (release rate profile); assay type: physicochemical; details: pH 6.8 phosphate buffer, 0.5% Tween 80, 37° C., 50 rpm
Protocol: Testing of Dissolution of DIM Containing Particles: In order to determine the release rate profiles of DIM from matrix, particle formulations, a test using pH 6.8 phosphate buffer system containing 0.5% Tween 80 was utilized. The procedure included dissolving an amount of spray dried particles containing a known amount of DIM in a standard dissolution apparatus with standard simulated saliva solution. For the following testing, 900 ml of stock pH 6.8 buffer solution was placed into a round bottom beaker in the dissolution test apparatus. To the solution, 5 g of Tween 80 (Sorbitan Monooleate) was added and mixed while bringing to a temperature of 37° C. To this, 600 mg of a test sample with known DIM content was added to the solution and stirred at 50 rpm. At timed intervals 3.0 ml aliquots of solution was removed and filtered through 0.22 um filter. The absorption of the sample was read at 283 nm on an […], blanking vs. pH 6.8 buffer containing 0.5% Tween 80. The percent released DIM compared to the 100% complete, theoretical level was calculated.

[3] = tested on: osteoclasts in metaphyseal bone; assay: Bone histomorphometry: osteoclast number after one year feeding of DIM or I3C; assay type: in vivo, rats; details: 1 year; for Osteoclast Cell Number in Metaphyseal Bone: DIM 20 mg/kg/day (BioResponse-DIM), I3C 50 mg/kg/day in diet
Protocol: A one year study was conducted including evaluation of the impact of chronic feeding of DIM and I3C versus control diet in rats. The study used a dose of 20 mg/kg/day DIM, formulated for increased absorption (BioResponse-DIM, BioResponse, Boulder, Colo. [Example 1]), and 50 mg/kg/day Indole-3-Carbinol (I3C) (Sigma Chemical, St. Louis, Mo.). Bone histomorphometry was performed comparing metaphyseal bone in male and female animals using established techiques (Huffer W E, Ruegg P, Zhu J M, Lepoff R B., Semiautomated methods for cancellous bone histomorphometry using a general-purpose video image analysis system. J Microsc. 1994 January; 173 (Pt 1):53-66). Counts of osteoclast number, averaged for male and female groups are summarized in the following chart: […]

[4] = Case report: DIM treatment of a subject with rheumatoid arthritis and gingivitis; assay type: in vivo, human; details: oral, subject with rheumatoid arthritis
Protocol: (§1) A person with a diagnosis of rheumatoid arthritis was referred for Diinolylmethane (DIM) treatment due to intolerance of oral Plaquenil®. […] They had diffuse small joint pain and elevated Rheumatoid Factor and Antinuclear Antigen serum titers. […] On probing, a total of 12 bleeding sites were documented. They began taking DIM (BioResponse-DIM 150, BioResponse, Boulder, Colo.) taking 50 mg of DIM twice daily.
as §1, with “daily. […] Subsequently they discontinued use of DIM and noted gradual return of painful swollen joints in their hands over 2 months.” for “daily.”

[5] = tested on: rat bone osteoclasts; details: Gao and Yamaguchi 1999; cited from earlier work
[6] = tested on: mouse osteoclast-like multinucleated cells (OCLs); assay: Pit formation assay on dentine slices; details: 0.5-50 micromolar, 24 h and 48 h
Description: Osteoblasts will be obtained from the calvariae of newborn ddY mice and bone marrow cells will be obtained from the tibiae of male mice and be cocultured in aMEM (Life Technologies, Grand Island, N.Y.) containing 10% FBS, 1α,25-dihydroxyvitamin D3 (10^−8 M) (Wako Pure Chemical, Osaka, Japan) and PGE2 (10^−6 M) (Sigma) in 100-mm-diameter dishes coated with collagen gels (Nitta Gelatin, Osaka). OCLs will be formed within 6 days in culture and will be removed from the dishes by treating with 0.2% collagenase (Wako). The purity of OCLs in this fraction (crude OCL preparation) will be about 5%. To further purify the OCLs, the crude OCL preparation will be replated on culture dishes. After further culture for 8 h, osteoblasts will be removed with PBS containing 0.001% pronase E (Calbiochem, La Jolla, Calif.) and 0.02% EDTA.
OCLs preparations (15,000 cells/0.1 ml/well) will be seeded on dentine slices (4-mm diameter) which had been placed in 96-well plates. […] Pit formation by OCls will be determined after culture for 24 h and 48 h. […] The numbers of pits on the slices will be counted. To quantitate pit-forming activity of OCLs, the areas of resorption lacunae will also be measured with an image analysis system (LA-525; PIAS Co., Tokyo). The results will be expressed as the percentage of resorbed area with respect to the whole surface area of a dentine slice.

In the case of `CC(C)Oc1ccc2c(=O)c(-c3ccccc3)coc2c1` [Ipriflavone, 3-phenyl-7-propan-2-yloxy-chromen-4-one], the “Measures of bone health” value ([1]; 600 mg/day, 3 years of treatment, controlled trial) is listed as “no significant improvement”.

For `c1ccc2c(Cc3c[nH]c4ccccc34)c[nH]c2c1` [Microcrystalline DIM, 3,3′-diindolylmethane], the “Percent DIM Released from Particle” value ([2]; 0 minutes) was 0%, the “Percent DIM Released from Particle” value ([2]; 15 minutes) was 55.1% and the “Percent DIM Released from Particle” value ([2]; 30 minutes) was 73.6%. The “Percent DIM Released from Particle” value ([2]; 45 minutes) was 78.8% and the “Percent DIM Released from Particle” value ([2]; 60 minutes) was 83.5%.

For `OCc1c[nH]c2ccccc12` [I3C, Indole-3-carbinol, reference compound], the “Osteoclast Cell Number in Metaphyseal Bone” value (from here on “Osteoclast Cell Number”) ([3]; female rats) was 18.3 and the “Osteoclast Cell Number” value ([3]; male rats) was 14.3*.

In the case of `CCN(CCO)CCCC(C)Nc1ccnc2cc(Cl)ccc12` (stereo not shown) [Plaquenil], the “Tolerance (adverse effect)” value [4] is reported as “unacceptable dizziness”.

For `O=c1c(-c2ccc(O)cc2)coc2cc(O)cc(O)c12` [Genistein, 4′,5,7-trihydroxyisoflavone], the “Potency of inhibiting the function of osteoclasts relative to daidzein” value [5] is given as “about 10 times”, the Bone mineral density ([1]; 52 mg/day, year long clinical trial) is given as “failed to show any measurable improvement” and the “Serum and urinary indicators of ongoing bone loss” value ([1]; 90 mg/day, clinical trial) is given as “failed to reduce”.

In the case of `c1ccc2c(Cc3c[nH]c4ccccc34)c[nH]c2c1` [DIM, 3,3′-diindolylmethane], the “Pit formation by OCLs (osteoclast function and survival)” value [6] is reported as “inhibition of pit formation”, the “Osteoclast Cell Number” value ([3]; female rats) is reported as 14.3 and the “Osteoclast Cell Number” value ([3]; male rats) is reported as 9.3*. For the same compound, the “Change in osteoclast number versus I3C treated and control animals” value ([3]; rats) was “reduction in osteoclast number”.
